According to ChEMBL document CHEMBL5034001 (J Med Chem, 2021):
Activity calls are given as the source filed them. The rule behind the calls is not given here.

What was measured:
NCI-H2228 [1] = assay: Down regulation of RSK1 in human NCI-H2228 cells at 1 to 1000 nM after 16 hrs by Western blot analysis; format: functional, cell-based; conditions: dose 1-1000 nM
[2] = target: T1, ALK tyrosine kinase receptor (Homo sapiens, UniProt Q9UM73); assay: Induction of ALK degradation in human SR cells at 100 nM pretreated with proteosome inhibitor MG132 for 4 hrs followed by compound addition and measured after 16 hrs by Western blot analysis; format: cell-based
Calu-1 [3] = assay: Down regulation of cyclin D1 protein expression in human Calu-1 cells at 1 to 500 nM after 48 hrs by Western blot analysis; format: functional, cell-based; conditions: dose 1-500 nM
[4] = target: Tyrosine-protein kinase Fer (Homo sapiens) (UniProt P16591); assay: Binding affinity to wild-type human partial length FER (S542 to T822 residues) expressed in bacterial expression system assessed as residual binding level at 100 nM by Kinomescan method relative to control
Calu-1 [5] = assay: Down regulation of RSK1 in human Calu-1 cells at 1 to 1000 nM after 16 hrs by Western blot analysis; format: functional, cell-based; conditions: dose 1-1000 nM
[6] = target: Focal adhesion kinase 1 (Homo sapiens) (UniProt Q05397); assay: Induction of FAK degradation in human NCI-H2228 cells at 1 nM after 16 hrs by Western blot analysis; format: cell-based
[7] = tested on: Mast/stem cell growth factor receptor Kit (Homo sapiens), P10721 [D816V]; assay: Binding affinity to human partial length KIT D816V mutant (I571 to D952 residues) expressed in bacterial expression system assessed as residual binding level at 100 nM by Kinomescan method relative to control
Calu-1 [8] = assay: Down regulation of C-myc protein expression in human Calu-1 cells at 1 to 500 nM after 48 hrs by Western blot analysis; format: functional, cell-based; conditions: dose 1-500 nM
[9] = tested on: Epidermal growth factor receptor (Homo sapiens), P00533 [L858R,T790M]; assay: Induction of EGFR L858R/T790M mutant degradation in human […] at 100 nM by Western blot analysis; format: cell-based
[10] = target: Serine/threonine-protein kinase Chk2 (Homo sapiens) (UniProt O96017); assay: Binding affinity to wild-type human partial length CHEK2 (S253 to E574 residues) expressed in bacterial expression system assessed as residual binding level at 100 nM by Kinomescan method relative to control
[11] = target: Tyrosine-protein kinase receptor UFO (Homo sapiens) (UniProt P30530); assay: Binding affinity to wild-type human partial length AXL (R497 to Y821 residues) expressed in bacterial expression system assessed as residual binding level at 100 nM by Kinomescan method relative to control
MDA-MB-231 [12] = assay: Down regulation of C-myc protein expression in human MDA-MB-231 cells at 1 to 500 nM after 48 hrs by Western blot analysis; format: functional, cell-based; conditions: dose 1-500 nM
[13] = AUC in […] at 10 mg/kg, po or 2 mg/kg, iv measured upto 24 hrs; format: ADME, organism-based; set-up: dose 10 mg/kg, time <=24; conditions: in vivo
[14] = target: NUAK family SNF1-like kinase 2 (Homo sapiens) (UniProt Q9H093); assay: Binding affinity to wild-type human partial length SNARK (P22 to A333 residues) expressed in mammalian expression system assessed as residual binding level at 100 nM by Kinomescan method relative to control
[15] = tested on: ALK tyrosine kinase receptor (Homo sapiens), Q9UM73 [L1196M]; assay: Binding affinity to wild-type human partial length ALK L1196M mutant (I1088 to E1409 residues) expressed in mammalian expression system assessed as residual binding level at 100 nM by Kinomescan method relative to control
[16] = target: T1, ALK tyrosine kinase receptor; assay: Induction of ALK degradation in human SR cells at 100 nM after 8 to 24 hrs by Western blot analysis; format: cell-based; conditions: time 8-24 hrs
[17] = Metabolic stability in CD-1 mouse liver microsomes preincubated for 10 mins followed by NADPH regenerating system addition and measured after 10 mins by LC-MS/MS analysis; format: ADME, Microsome; conditions: time 20 min, read-out: Stability
[18] = target: Dual specificity protein kinase CLK1 (Homo sapiens) (UniProt P49759); assay: Binding affinity to wild-type human full length CLK1 (M1 to I484 residues) expressed in bacterial expression system assessed as residual binding level at 100 nM by Kinomescan method relative to control
[19] = Half life in […] at 10 mg/kg, po or 2 mg/kg, iv measured upto 24 hrs; format: ADME, organism-based; conditions: in vivo
[20] = tested on: ALK tyrosine kinase receptor (Homo sapiens), Q9UM73 [G1202R]; assay: Induction of […] G1202R mutant degradation in human […] at 100 nM by Western blot analysis; format: cell-based
[21] = target: Tyrosine-protein kinase JAK3 (Homo sapiens) (UniProt P52333); assay: Binding affinity to wild-type human partial length JAK3 JH1 catalytic domain (I781 to S1124 residues) expressed in mammalian expression system assessed as residual binding level at 100 nM by Kinomescan method relative to control
MDA-MB-231 [22] = assay: Down regulation of cyclin D1 protein expression in human MDA-MB-231 cells at 1 to 500 nM after 48 hrs by Western blot analysis; format: functional, cell-based; conditions: dose 1-500 nM
Calu-1 [23] = assay: Induction of apoptosis in human Calu-1 cells at 100 nM after 72 hrs; format: functional, cell-based
Calu-1 [24] = assay: Down regulation of FAK in human Calu-1 cells at 1 to 1000 nM after 16 hrs by Western blot analysis; format: functional, cell-based; conditions: dose 1-1000 nM
NCI-H1975 = assay: Antiproliferative activity against human H1975 cells overexpressing EGFR L858R/T790M mutant assessed as cell growth inhibition after 72 hrs; format: functional, cell-based; conditions: NCI-H1975, 72 h
[25] = target: T1, ALK tyrosine kinase receptor; assay: Inhibition of ALK downstream signalling in human SR cells assessed as reduction in ratio of pALK at 0.1 to 50 nM by Western blot analysis; format: cell-based; conditions: dose 0.1-50 nM
MDA-MB-231 [26] = assay: Inhibition of cell migration in human MDA-MB-231 cells assessed as wound confluence ratio at 10 nM after 48 hrs by wound healing assay; format: functional
NCI-H2228 [27] = assay: Down regulation of FAK in human NCI-H2228 cells at 1 to 1000 nM after 16 hrs by Western blot analysis; format: functional, cell-based; conditions: dose 1-1000 nM
[28] = target: Serine/threonine-protein kinase ULK1 (Homo sapiens) (UniProt O75385); assay: Binding affinity to wild-type human partial length ULK1 (M1 to T309 residues) expressed in mammalian expression system assessed as residual binding level at 100 nM by Kinomescan method relative to control
HEK-293T = assay: Antiproliferative activity against human 293T cells overexpressing ALK G1202R mutant assessed as cell growth inhibition after 72 hrs; format: functional, cell-based
[29] = target: Cyclin-G-associated kinase (Homo sapiens) (UniProt O14976); assay: Binding affinity to wild-type human partial length GAK (G13 to Y338 residues) expressed in bacterial expression system assessed as residual binding level at 100 nM by Kinomescan method relative to control
[30] = target: T1, ALK tyrosine kinase receptor; assay: Induction of ALK degradation in human SR cells at 100 nM pretreated with proteosome inhibitor MLN4924 for 4 hrs followed by compound addition and measured after 16 hrs by Western blot analysis; format: cell-based
SR = assay: Induction of G1 cell cycle arrest in human SR cells at 100 nM after 24 to 48 hrs; format: functional, cell-based; conditions: time 24-48 hrs

T1 sequence (Q9UM73 19-1620 limits assumed): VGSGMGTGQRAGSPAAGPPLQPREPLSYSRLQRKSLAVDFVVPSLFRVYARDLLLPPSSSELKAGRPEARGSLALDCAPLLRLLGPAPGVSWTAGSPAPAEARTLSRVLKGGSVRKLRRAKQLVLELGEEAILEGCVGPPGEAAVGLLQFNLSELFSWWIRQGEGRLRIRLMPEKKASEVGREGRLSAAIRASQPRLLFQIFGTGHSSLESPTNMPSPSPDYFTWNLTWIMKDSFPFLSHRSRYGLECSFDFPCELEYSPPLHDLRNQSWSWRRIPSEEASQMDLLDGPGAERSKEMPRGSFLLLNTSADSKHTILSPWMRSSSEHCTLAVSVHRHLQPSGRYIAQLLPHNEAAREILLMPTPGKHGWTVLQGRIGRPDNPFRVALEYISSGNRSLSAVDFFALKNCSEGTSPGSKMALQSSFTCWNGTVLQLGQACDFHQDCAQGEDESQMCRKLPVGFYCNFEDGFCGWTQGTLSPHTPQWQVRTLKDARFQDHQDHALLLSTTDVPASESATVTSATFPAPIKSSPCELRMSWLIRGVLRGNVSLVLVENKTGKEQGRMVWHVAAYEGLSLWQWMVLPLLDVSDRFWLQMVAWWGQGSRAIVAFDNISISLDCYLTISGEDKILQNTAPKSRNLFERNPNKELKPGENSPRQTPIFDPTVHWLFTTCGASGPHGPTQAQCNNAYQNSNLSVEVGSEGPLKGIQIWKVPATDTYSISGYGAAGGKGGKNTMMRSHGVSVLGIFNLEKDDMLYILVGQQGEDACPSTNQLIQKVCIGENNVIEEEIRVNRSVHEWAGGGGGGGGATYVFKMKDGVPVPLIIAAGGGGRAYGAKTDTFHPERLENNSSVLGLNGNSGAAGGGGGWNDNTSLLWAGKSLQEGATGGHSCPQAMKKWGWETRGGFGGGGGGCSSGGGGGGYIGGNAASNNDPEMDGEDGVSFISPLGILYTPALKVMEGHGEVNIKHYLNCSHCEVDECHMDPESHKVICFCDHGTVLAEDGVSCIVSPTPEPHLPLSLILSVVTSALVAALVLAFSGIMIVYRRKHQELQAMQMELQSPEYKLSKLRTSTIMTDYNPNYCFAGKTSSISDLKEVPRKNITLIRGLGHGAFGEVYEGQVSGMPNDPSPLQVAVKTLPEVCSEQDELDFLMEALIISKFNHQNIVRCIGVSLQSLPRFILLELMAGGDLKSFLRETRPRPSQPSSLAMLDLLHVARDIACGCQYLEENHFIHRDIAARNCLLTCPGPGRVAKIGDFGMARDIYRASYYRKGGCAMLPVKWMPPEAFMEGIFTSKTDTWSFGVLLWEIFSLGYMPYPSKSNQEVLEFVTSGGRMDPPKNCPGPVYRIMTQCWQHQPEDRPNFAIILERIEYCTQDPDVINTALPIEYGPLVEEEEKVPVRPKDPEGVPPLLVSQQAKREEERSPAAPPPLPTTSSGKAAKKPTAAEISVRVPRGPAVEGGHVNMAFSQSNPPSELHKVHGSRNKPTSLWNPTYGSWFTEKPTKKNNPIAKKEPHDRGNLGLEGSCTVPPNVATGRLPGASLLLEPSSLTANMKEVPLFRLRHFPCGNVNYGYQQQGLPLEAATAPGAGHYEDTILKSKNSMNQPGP
Chain of Dual specificity protein kinase CLK1 (Homo sapiens) (P49759 whole entry, looked up, the tested form may be a part): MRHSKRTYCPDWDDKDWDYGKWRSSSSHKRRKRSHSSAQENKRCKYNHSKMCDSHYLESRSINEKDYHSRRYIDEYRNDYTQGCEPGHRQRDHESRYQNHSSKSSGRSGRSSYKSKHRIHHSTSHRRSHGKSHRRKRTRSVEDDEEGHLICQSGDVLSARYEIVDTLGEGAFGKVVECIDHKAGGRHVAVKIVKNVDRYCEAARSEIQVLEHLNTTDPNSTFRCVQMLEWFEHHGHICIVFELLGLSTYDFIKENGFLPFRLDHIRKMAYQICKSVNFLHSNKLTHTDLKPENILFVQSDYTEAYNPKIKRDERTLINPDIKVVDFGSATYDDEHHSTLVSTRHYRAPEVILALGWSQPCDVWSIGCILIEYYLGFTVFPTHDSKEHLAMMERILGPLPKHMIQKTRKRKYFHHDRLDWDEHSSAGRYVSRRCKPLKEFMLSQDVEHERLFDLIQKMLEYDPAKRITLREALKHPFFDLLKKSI
Chain of Tyrosine-protein kinase Fer (Homo sapiens) (P16591 whole entry, looked up, the tested form may be a part): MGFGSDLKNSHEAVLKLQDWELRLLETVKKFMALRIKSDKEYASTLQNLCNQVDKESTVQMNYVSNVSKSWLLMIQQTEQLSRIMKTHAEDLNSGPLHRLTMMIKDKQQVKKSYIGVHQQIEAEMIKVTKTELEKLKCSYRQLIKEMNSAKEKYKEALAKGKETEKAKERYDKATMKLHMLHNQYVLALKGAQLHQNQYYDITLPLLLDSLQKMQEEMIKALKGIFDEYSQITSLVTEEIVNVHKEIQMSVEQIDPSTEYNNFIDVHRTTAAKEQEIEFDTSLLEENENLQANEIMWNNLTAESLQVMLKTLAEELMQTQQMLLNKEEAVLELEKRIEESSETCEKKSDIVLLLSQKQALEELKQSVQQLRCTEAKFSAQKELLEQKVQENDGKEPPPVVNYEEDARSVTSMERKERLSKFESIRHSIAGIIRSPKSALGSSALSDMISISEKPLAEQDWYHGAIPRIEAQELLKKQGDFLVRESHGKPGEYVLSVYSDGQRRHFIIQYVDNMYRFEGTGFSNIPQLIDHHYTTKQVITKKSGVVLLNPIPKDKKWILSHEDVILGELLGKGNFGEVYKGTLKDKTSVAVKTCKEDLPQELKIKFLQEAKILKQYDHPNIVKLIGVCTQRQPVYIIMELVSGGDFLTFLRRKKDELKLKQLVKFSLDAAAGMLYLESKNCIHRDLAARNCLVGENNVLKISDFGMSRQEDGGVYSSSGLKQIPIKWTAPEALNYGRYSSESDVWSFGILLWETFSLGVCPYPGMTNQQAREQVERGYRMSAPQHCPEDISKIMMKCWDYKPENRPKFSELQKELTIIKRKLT
Chain of Tyrosine-protein kinase receptor UFO (Homo sapiens) (P30530 whole entry, the tested form may be a part): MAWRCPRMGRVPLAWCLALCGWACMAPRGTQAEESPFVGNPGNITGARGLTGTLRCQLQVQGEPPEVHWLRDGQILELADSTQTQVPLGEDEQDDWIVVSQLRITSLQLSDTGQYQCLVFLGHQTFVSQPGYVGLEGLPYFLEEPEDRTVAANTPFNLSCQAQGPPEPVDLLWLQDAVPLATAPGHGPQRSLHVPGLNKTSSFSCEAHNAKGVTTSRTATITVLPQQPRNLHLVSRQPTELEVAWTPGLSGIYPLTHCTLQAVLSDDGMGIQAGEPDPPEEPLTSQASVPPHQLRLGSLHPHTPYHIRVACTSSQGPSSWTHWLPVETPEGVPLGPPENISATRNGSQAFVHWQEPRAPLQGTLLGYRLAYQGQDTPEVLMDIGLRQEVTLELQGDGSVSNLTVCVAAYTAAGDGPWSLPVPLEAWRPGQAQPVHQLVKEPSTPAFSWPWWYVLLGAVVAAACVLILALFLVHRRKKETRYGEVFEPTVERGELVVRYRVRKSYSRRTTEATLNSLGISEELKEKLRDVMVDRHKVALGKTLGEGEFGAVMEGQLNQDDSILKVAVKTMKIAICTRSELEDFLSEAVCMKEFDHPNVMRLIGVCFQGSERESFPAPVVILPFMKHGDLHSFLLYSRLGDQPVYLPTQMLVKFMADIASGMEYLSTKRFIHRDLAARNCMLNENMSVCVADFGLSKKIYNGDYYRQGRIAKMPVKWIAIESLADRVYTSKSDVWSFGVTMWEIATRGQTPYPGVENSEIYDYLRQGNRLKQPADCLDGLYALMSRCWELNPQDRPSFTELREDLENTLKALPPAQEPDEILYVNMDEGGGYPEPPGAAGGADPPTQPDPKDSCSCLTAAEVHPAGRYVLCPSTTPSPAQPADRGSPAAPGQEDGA
Chain of NUAK family SNF1-like kinase 2 (Homo sapiens) (Q9H093 whole entry, the tested form may be a part): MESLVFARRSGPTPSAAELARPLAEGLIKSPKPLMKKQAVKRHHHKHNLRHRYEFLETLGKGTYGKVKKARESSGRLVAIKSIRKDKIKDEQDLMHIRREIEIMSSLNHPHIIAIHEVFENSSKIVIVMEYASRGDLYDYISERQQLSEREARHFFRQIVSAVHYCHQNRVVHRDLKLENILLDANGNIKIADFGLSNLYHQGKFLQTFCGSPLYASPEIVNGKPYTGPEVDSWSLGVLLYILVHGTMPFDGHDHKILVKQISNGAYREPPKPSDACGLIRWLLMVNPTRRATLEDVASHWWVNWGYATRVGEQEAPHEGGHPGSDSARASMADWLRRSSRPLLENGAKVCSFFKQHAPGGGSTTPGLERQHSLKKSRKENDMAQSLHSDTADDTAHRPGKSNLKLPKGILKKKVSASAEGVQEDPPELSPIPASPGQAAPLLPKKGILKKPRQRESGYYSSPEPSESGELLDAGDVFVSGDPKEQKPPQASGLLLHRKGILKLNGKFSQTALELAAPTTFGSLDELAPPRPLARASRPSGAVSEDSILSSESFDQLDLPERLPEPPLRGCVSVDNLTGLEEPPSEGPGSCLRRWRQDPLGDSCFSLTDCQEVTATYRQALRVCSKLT
Chain of Serine/threonine-protein kinase Chk2 (Homo sapiens) (O96017 whole entry, the tested form may be a part): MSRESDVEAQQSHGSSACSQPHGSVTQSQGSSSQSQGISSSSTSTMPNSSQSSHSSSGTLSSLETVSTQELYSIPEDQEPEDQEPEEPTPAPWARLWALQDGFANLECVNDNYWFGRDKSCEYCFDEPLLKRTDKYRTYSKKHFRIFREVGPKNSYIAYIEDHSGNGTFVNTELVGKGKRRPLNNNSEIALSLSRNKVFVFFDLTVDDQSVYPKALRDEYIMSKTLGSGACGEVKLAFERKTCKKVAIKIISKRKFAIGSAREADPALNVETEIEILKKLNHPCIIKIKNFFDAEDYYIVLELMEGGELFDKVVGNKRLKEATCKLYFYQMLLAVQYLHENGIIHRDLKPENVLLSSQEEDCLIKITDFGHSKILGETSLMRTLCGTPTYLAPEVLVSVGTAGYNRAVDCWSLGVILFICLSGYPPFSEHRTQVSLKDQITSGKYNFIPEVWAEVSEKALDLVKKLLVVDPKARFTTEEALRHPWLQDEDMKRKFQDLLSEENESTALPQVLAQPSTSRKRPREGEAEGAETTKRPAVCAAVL

In the case of `COc1cc(N2CCC(N3CCN(C(=O)CNc4cccc5c4C(=O)N(C4CCC(=O)NC4=O)C5=O)CC3)CC2)ccc1Nc1ncc(Cl)c(Nc2ccccc2P(C)(C)=O)n1` (stereo not drawn), the Activity (NCI-H2228 [1]) is reported as “Active”, the Activity [2] is reported as “inactive” and the Activity (Calu-1 [3]) is reported as “Active”. For the same molecule, the Activity [4] was 4.1%, the Activity (Calu-1 [5]) was “Active” and the Activity [6] was “Active”. The Activity [7] was 8.1%, the Activity (Calu-1 [8]) was “Active” and the Activity [9] was “Active”. For the same molecule, the Activity [10] was 0%, the Activity [11] was 9.5% and the Activity (MDA-MB-231 [12]) was “Active”. The AUC at 24 h [13] was 1560 ng·h/mL, the Activity [14] was 8.3% and the Activity [15] was 6.5%. For the same molecule, the Activity [16] was “Active”, the microsomal CLint [17] was 16.7 µL/min/mg and the Activity [18] was 3.8%. For the same molecule, the half-life [19] was 7.1 h, the Activity [20] was “Active” and the Activity [21] was 1%. The Activity (MDA-MB-231 [22]) was “Active”, the Activity (Calu-1 [23]) was “inactive” and the Activity (Calu-1 [24]) was “Active”. It also gave an IC50 (NCI-H1975) of 42 nM, a Ratio [25] of 0.18 and an inhibition at 0.01 µM (MDA-MB-231 [26]) of 48%. The Activity (NCI-H2228 [27]) was “Active”, the Activity [28] was 1.6% and the IC50 (HEK-293T) was 21 nM. The Activity [29] was 1.4%, the Activity [30] was “inactive” and the Activity (SR) was “Active”.
